In brackets after ≈: the same amount, converted by molar mass. Activity calls are given as the source filed them. No cut-off for these calls is given here.
Legend:
Staphylococcus aureus [1] = experiment: Antibacterial activity against vancomycin-intermediate resistant Staphylococcus aureus ATCC 700699/Mu50 assessed as reduction in bacterial growth incubated for 24 hrs by broth microdilution method; type: functional
Streptococcus pyogenes [2] = experiment: Antibacterial activity against Streptococcus pyogenes ATCC 12204 assessed as reduction in bacterial growth incubated for 24 hrs by broth microdilution method; type: functional
Enterococcus faecium [3] = experiment: Antibacterial activity against clinical isolate Enterococcus faecium assessed as reduction in bacterial growth incubated for 24 hrs by broth microdilution method; type: functional
Pseudomonas aeruginosa [4] = experiment: Antibacterial activity against Pseudomonas aeruginosa ATCC 47085 assessed as reduction in bacterial growth incubated for 24 hrs by broth microdilution method; type: functional
Klebsiella pneumoniae = experiment: Antibacterial activity against Klebsiella pneumoniae ATCC 13883 assessed as reduction in bacterial growth incubated for 24 hrs by broth microdilution method; type: functional
Acinetobacter baumannii = experiment: Antibacterial activity against Acinetobacter baumannii ATCC 19606 assessed as reduction in bacterial growth incubated for 24 hrs by broth microdilution method; type: functional
Staphylococcus aureus [5] = experiment: Antibiofilm activity against vancomycin-intermediate resistant Staphylococcus aureus ATCC 700699/Mu50 at sub-MIC doses measured after 24 hrs by crystal violet staining based analysis; type: functional
Enterococcus faecium [6] = experiment: Antibiofilm activity against Enterococcus faecium clinical isolate at sub-MIC doses measured after 24 hrs by crystal violet staining based analysis; type: functional
Pseudomonas aeruginosa [7] = experiment: Antibiofilm activity against Pseudomonas aeruginosa ATCC 47085 at sub-MIC doses measured after 24 hrs by crystal violet staining based analysis; type: functional
Staphylococcus aureus [8] = experiment: Antibiofilm activity against vancomycin-intermediate resistant Staphylococcus aureus ATCC 700699/Mu50 at 1/8 time MIC measured after 24 hrs by crystal violet staining based analysis; type: functional, organism-based
Enterococcus faecium [9] = experiment: Antibiofilm activity against Enterococcus faecium clinical isolate at 1/8 times MIC measured after 24 hrs by crystal violet staining based analysis; type: functional, organism-based
Pseudomonas aeruginosa [10] = experiment: Antibiofilm activity against Pseudomonas aeruginosa ATCC 47085 at 8 to 16 ug/ml measured after 24 hrs by crystal violet staining based analysis; type: functional, organism-based; conditions: dose 8-16 µg/ml
Staphylococcus aureus [11] = experiment: Antibacterial activity against community associated methicillin-resistant Staphylococcus aureus USA400 assessed as reduction in bacterial growth incubated for 24 hrs by broth microdilution method; type: functional
Staphylococcus aureus [12] = experiment: Antibacterial activity against community associated methicillin-resistant Staphylococcus aureus USA300 assessed as reduction in bacterial growth incubated for 24 hrs by broth microdilution method; type: functional
Enterococcus faecium [13] = experiment: Antibacterial activity against Enterococcus faecium Efm-HS0649 assessed as reduction in bacterial growth incubated for 24 hrs by broth microdilution method; type: functional
Enterococcus faecium [14] = experiment: Antibacterial activity against Enterococcus faecium Efm-HS06188 assessed as reduction in bacterial growth incubated for 24 hrs by broth microdilution method; type: functional
Enterococcus faecium [15] = experiment: Antibacterial activity against glycopeptide-resistant Enterococcus faecium vanB type assessed as reduction in bacterial growth incubated for 24 hrs by broth microdilution method; type: functional
NCI-H1299 = experiment: Cytotoxicity against human NCI-H1299 cells measured after 72 hrs by SRB assay; type: functional, cell-based; conditions: NCI-H1299, 72 h
NCI-H1975 = experiment: Cytotoxicity against human NCI-H1975 cells measured after 72 hrs by SRB assay; type: functional, cell-based; conditions: NCI-H1975, 72 h
[16] = Metabolic stability in human liver microsomes assessed as metabolic bioavailability at 0.1 uM preincubated for 10 mins followed by NADPH addition and measured upto 60 mins by LC-MS/MS analysis; type: ADME, Microsome; conditions: time < 70 min
[17] = Metabolic stability in mouse liver microsomes assessed as metabolic bioavailability at 0.1 uM preincubated for 10 mins followed by NADPH addition and measured upto 60 mins by LC-MS/MS analysis; type: ADME, Microsome; conditions: time < 70 min
[18] = Metabolic stability in rat liver microsomes assessed as metabolic bioavailability at 0.1 uM preincubated for 10 mins followed by NADPH addition and measured upto 60 mins by LC-MS/MS analysis; type: ADME, Microsome; conditions: time < 70 min
[19] = Metabolic stability in dog liver microsomes assessed as metabolic bioavailability at 0.1 uM preincubated for 10 mins followed by NADPH addition and measured upto 60 mins by LC-MS/MS analysis; type: ADME, Canis lupus familiaris, Microsome; conditions: time < 70 min
[20] = Metabolic stability in monkey liver microsomes assessed as metabolic bioavailability at 0.1 uM preincubated for 10 mins followed by NADPH addition and measured upto 60 mins by LC-MS/MS analysis; type: ADME, Macaca mulatta, Microsome; conditions: rhesus monkey, time < 70 min
Streptococcus pyogenes [21] = experiment: Antibacterial activity against Streptococcus pyogenes infected in Galleria mellonella larvae infection model assessed as prolongation of median survival time at 1 mg/kg pre-infected with bacteria for 1 hr followed by compound addition measured every 12 hrs for 3 days (reference value: 24 hrs); type: functional; conditions: time 3 day
Streptococcus pyogenes [22] = experiment: Antibacterial activity against Streptococcus pyogenes infected in Galleria mellonella larvae infection model assessed as increase in number of surviving larvae at 1 mg/kg pre-infected with bacteria for 1 hr followed by compound addition measured every 12 hrs for 3 days; type: functional, organism-based; conditions: time 3.0 day
[23] = Toxicity in Galleria mellonella larvae assessed as reduction in animal survival at 20 mg/kg; type: organism-based; conditions: in vivo, 80 h
[24] = Toxicity in Galleria mellonella larvae assessed as reduction in animal survival […]; type: organism-based; conditions: in vivo, 80 h

Molecule	MIC (Staphylococcus aureus [1])	MIC (Streptococcus pyogenes [2])	MIC (Enterococcus faecium [3])	MIC (Pseudomonas aeruginosa [4])	MIC (Klebsiella pneumoniae)	MIC (Acinetobacter baumannii)	further results
Oc1c(Br)cc(C(F)(F)F)cc1-c1csc(-c2cc(Cl)c(Cl)[nH]2)n1	1 mg/L (≈ 2.18 µM)	≤ 0.125 mg/L	> 256 mg/L				
Oc1c(F)cc(F)cc1-c1csc(-c2cc(Cl)c(Cl)[nH]2)n1	> 256 mg/L	> 256 mg/L	> 256 mg/L				
Oc1c(Cl)cc(Cl)cc1-c1csc(-c2cc(C(F)(F)F)n[nH]2)n1	4 mg/L (≈ 10.5 µM)	4 mg/L (≈ 10.5 µM)	4 mg/L (≈ 10.5 µM)	> 256 mg/L	> 256 mg/L	> 256 mg/L	Activity (Staphylococcus aureus [5]): >60%; Activity (Enterococcus faecium [6]): >60%; Activity (Pseudomonas aeruginosa [7]): >60%; Activity (Staphylococcus aureus [8]): Active; Activity (Enterococcus faecium [9]): Active; Activity (Pseudomonas aeruginosa [10]): Active
O=[N+]([O-])c1cc(-c2nc(-c3cc(Cl)cc(Cl)c3O)cs2)[nH]n1	128 mg/L (≈ 358 µM)	8 mg/L (≈ 22.4 µM)	> 256 mg/L				
FC(F)(F)c1cc(Br)cc(-c2csc(-c3[nH]c(Br)c(Br)c3Br)n2)c1	16 mg/L (≈ 26.2 µM)	16 mg/L (≈ 26.2 µM)	32 mg/L (≈ 52.5 µM)				
Oc1c(Br)cc(Br)cc1-c1csc(-c2cc(Br)c(Br)[nH]2)n1	> 256 mg/L	2 mg/L (≈ 3.58 µM)	> 256 mg/L				
Cc1cc(Cl)c(O)c(-c2csc(-c3cc(Cl)c(Cl)[nH]3)n2)c1	> 256 mg/L	> 256 mg/L	> 256 mg/L				
Oc1c(Br)cc(C(F)(F)F)cc1-c1csc(-c2cc(Br)c(Br)[nH]2)n1	1 mg/L (≈ 1.83 µM)	0.5 mg/L (≈ 0.914 µM)	2 mg/L (≈ 3.66 µM)				
Oc1ccccc1-c1csc(-c2cc(Cl)c(Cl)[nH]2)n1	> 256 mg/L	> 256 mg/L	> 256 mg/L				
Oc1c(Br)cc(C(F)(F)F)cc1-c1csc(-c2[nH]c(Br)c(Br)c2Br)n1	2 mg/L (≈ 3.2 µM)	≤ 0.125 mg/L	≤ 0.125 mg/L	> 256 mg/L	> 256 mg/L	> 256 mg/L	MIC (Staphylococcus aureus [11]): 16 mg/L (≈ 25.6 µM); MIC (Staphylococcus aureus [12]): 16 mg/L (≈ 25.6 µM); MIC (Enterococcus faecium [13]): ≤ 0.125 mg/L; MIC (Enterococcus faecium [14]): ≤ 0.125 mg/L; MIC (Enterococcus faecium [15]): 0.5 mg/L (≈ 0.799 µM); IC50 (NCI-H1299): 8.25 mg/L (≈ 13.2 µM); IC50 (NCI-H1975): 4.4 mg/L (≈ 7.03 µM); Fh at 1 h, 0.1 µM [16]: 2.26%; Fh at 1 h, 0.1 µM [17]: 43.3%; Fh at 1 h, 0.1 µM [18]: 65.7%; Fh at 1 h, 0.1 µM [19]: 18.4%; Fh at 1 h, 0.1 µM [20]: 36.9%; Activity (Staphylococcus aureus [5]): >60%; Activity (Enterococcus faecium [6]): >60%; Activity (Pseudomonas aeruginosa [7]): >60%; Activity (Staphylococcus aureus [8]): Active; Activity (Pseudomonas aeruginosa [10]): Active; MST (Streptococcus pyogenes [21]): 36 h; Activity (Streptococcus pyogenes [22]): Active; Activity [23]: Non-Toxic
Oc1c(Cl)cc(Cl)cc1-c1csc(-c2[nH]c(Br)c(Br)c2Br)n1	> 256 mg/L	0.25 mg/L (≈ 0.456 µM)	0.5 mg/L (≈ 0.913 µM)	> 256 mg/L	> 256 mg/L	> 256 mg/L	
O=C(c1cc(Cl)c(Cl)[nH]1)c1cc(Cl)cc(Cl)c1O	≤ 0.125 mg/L	≤ 0.125 mg/L	0.5 mg/L (≈ 1.54 µM)				IC50 (NCI-H1299): 0.82 mg/L (≈ 2.52 µM); IC50 (NCI-H1975): 0.59 mg/L (≈ 1.82 µM); Activity [24]: Toxic
POLYMYXIN B				4 mg/L	2 mg/L	2 mg/L	Activity (Staphylococcus aureus [5]): inactive; Activity (Enterococcus faecium [6]): inactive; Activity (Pseudomonas aeruginosa [7]): inactive
